{"source": "patent US20100028395A1", "about": "“COMPOSITIONS CONTAINING N-ACETYLGLUCOSAMINE FOR USE IN DERMO-COSMETOLOGY AND AESTHETIC MEDICINE” (ROTTAPHARM S.P.A., priority 2007, published 2010)", "key": {"[1]": {"system": "Human fibroblasts, Detroit 551 ATCC CCL III", "assay": "Stimulation of HA synthesis in human fibroblast cultures (EIA HA assay)", "assay_type": "cell-based", "details": "for HA(ng/well) (Diff. from baseline) / HA (%) (Diff. from baseline): 48 h; for HA (%) from NAG (consistent doses): see Table 2", "source_text": "The test has been conducted in two stages, i.e.: • stage A: in which the stimulation of HA expression by COMBI has been evaluated while maintaining the concentration constant and varying the reciprocal quantities of its components. The concentration used has been selected so as to enable comparison with the results derived from stage B; • stage B: in which the effect of CA on HA expression has been evaluated by varying its concentration and in comparison with doses consistent with its components. […] Human fibroblasts have been grown in suitable growth medium (Eagle's minimal essential medium) supplemented with 10% foetal calf serum (FCS), 1 mM sodium pyruvate, 2 mM glutamine, non-essential aminoacids and 50 μg/ml glutamycin. […] After 48 hours, the supernatant has been removed and used for the determination of the parameters of interest. The test has been conducted in duplicate and untreated cell cultures have been used as controls. HA has been assayed (dosed) by means of an immuno-enzymatic test using a commercially available kit (EIA, Corgenix). De novo HA synthesis has been evaluated in the culture medium following treatment with the test substances, according to the protocol provided with the test, and against the calibration curve obtained using the HA standard contained in the kit. […] • evaluation of the effects of the substances tested, at the various concentrations, on fibroblast cultures has been expressed as the absolute and percent increase or decrease of the HA expression, with respect to the corresponding control culture, after 48 hours of incubation. The percentage difference increase or decrease of the effects exerted by CA and NAG, at corresponding concentrations, have then been calculated, with evaluation of their potential significance by means of the Student's “t” test."}, "[2]": {"system": "Human fibroblasts, Detroit 551 ATCC CCL III", "assay": "Stimulation of collagen synthesis in human fibroblast cultures (Sircol assay)", "assay_type": "cell-based", "details": "24 h", "source_text": "The scope of the test has been the evaluation and the comparison of the potential stimulation exerted by the test substances on the expression of collagen and elastin in “in vitro” cultures of skin-derived cells, such as fibroblasts. The test in question, even though conducted “in vitro”, can be considered to be predictive of the effects of use of the same substances “in vivo”. […] The samples have been dissolved directly in the culture medium. Each sample has been tested in duplicate and the experiments have been repeated twice. The parameters of interest have been determined after 24 hours on separate plates. Untreated cell cultures have been used as controls. A commercially available kit (Sircol™, biodye science) which uses the capacity of the stain Sirius Red to interact with the basic side chains of the aminoacids present in collagen itself, has been used for collagen assays. De novo collagen synthesis has been evaluated in the culture medium following treatment with the test substances, following the protocol provided with the kit, and by using the calibration curve obtained employing the collagen standard contained in turn in the kit. Evaluation of the effects of the substances tested, at the various concentrations, on fibroblast cultures, has been expressed as the absolute and percent increase or decrease of collagen and elastin expression, with respect to the corresponding control culture, after 24 hours of incubation. The percentage difference increase or decrease of the effects exerted by CA and NAG, at corresponding concentrations, have then been calculated, with consequent evaluation of their potential statistical significance by means of the test Student “t” test."}, "hyaluronate synthetase": {"system": "hyaluronate synthetase", "details": "plasma membrane fractions of human skin fibroblasts; cited from earlier work"}, "[3]": {"system": "MatTek Human Skin EpiDemFT skin model", "details": "addition of NAG to in vitro skin model; cited from earlier work"}}}
{"smiles": "CC(=O)N[C@@H](C=O)[C@@H](O)[C@H](O)[C@H](O)CO", "note": "[NAG, N-acetyl-2-amino-2 deoxyglucose]", "values": [{"measurement": "HA(ng/well) (Diff. from baseline)", "setting": "[1]; NAG 0.50 mg/ml", "result": "+54 ng/well"}, {"measurement": "HA (%) (Diff. from baseline)", "setting": "[1]; NAG 1.00 mg/ml", "result": "+58.98%"}, {"measurement": "HA(ng/well) (Diff. from baseline)", "setting": "[1]; NAG 1.00 mg/ml", "result": "+289 ng/well"}, {"measurement": "HA (%) (Diff. from baseline)", "setting": "[1]; NAG 1.50 mg/ml", "result": "+76.12%"}, {"measurement": "HA(ng/well) (Diff. from baseline)", "setting": "[1]; NAG 1.50 mg/ml", "result": "+373 ng/well"}, {"measurement": "HA (%) (Diff. from baseline)", "setting": "[1]; NAG 2.00 mg/ml", "result": "+78.78%"}, {"measurement": "HA(ng/well) (Diff. from baseline)", "setting": "[1]; NAG 2.00 mg/ml", "result": "+386 ng/well"}, {"measurement": "HA (%) (Diff. from baseline)", "setting": "[1]; NAG 2.50 mg/ml", "result": "+96.73%"}, {"measurement": "HA(ng/well) (Diff. from baseline)", "setting": "[1]; NAG 2.50 mg/ml", "result": "+474 ng/well"}, {"measurement": "HA (%) from NAG (consistent doses)", "setting": "[1]; NAG alone at 0.93 mg/ml (content of 1:3.5 combination)", "result": "≈59%"}, {"measurement": "HA (%) from NAG (consistent doses)", "setting": "[1]; NAG alone at 1.71 mg/ml (content of 1:0.5 combination)", "result": "+76.12-+78.8%"}, {"measurement": "Collagen (%) (Diff. from baseline)", "setting": "[2]; NAG 0.50 mg/ml", "result": "+1.64%"}, {"measurement": "Collagen(μg/ml) (Diff. from baseline)", "setting": "[2]; NAG 0.50 mg/ml", "result": "+0.07 μg/ml"}, {"measurement": "Collagen (%) (Diff. from baseline)", "setting": "[2]; NAG 1.00 mg/ml", "result": "+30.28%"}, {"measurement": "Collagen(μg/ml) (Diff. from baseline)", "setting": "[2]; NAG 1.00 mg/ml", "result": "+1.29 μg/ml"}, {"measurement": "Collagen (%) (Diff. from baseline)", "setting": "[2]; NAG 1.50 mg/ml", "result": "+36.15%"}, {"measurement": "Collagen(μg/ml) (Diff. from baseline)", "setting": "[2]; NAG 1.50 mg/ml", "result": "+1.54 μg/ml"}, {"measurement": "Collagen (%) (Diff. from baseline)", "setting": "[2]; NAG 2.00 mg/ml", "result": "+32.86%"}, {"measurement": "Collagen(μg/ml) (Diff. from baseline)", "setting": "[2]; NAG 2.00 mg/ml", "result": "+1.33 μg/ml"}, {"measurement": "Collagen (%) (Diff. from baseline)", "setting": "[2]; NAG 2.50 mg/ml", "result": "+47.65%"}, {"measurement": "Collagen(μg/ml) (Diff. from baseline)", "setting": "[2]; NAG 2.50 mg/ml", "result": "+2.03 μg/ml"}, {"measurement": "activity of the enzyme hyaluronate synthetase", "setting": "hyaluronate synthetase", "result": "stimulates"}, {"measurement": "increase of HA", "setting": "[3]", "result": "very high, significant and dose dependent increase"}, {"measurement": "increase of pro-collagen 1", "setting": "[3]", "result": "very high, significant and dose dependent increase"}]}
